Laboratory results reported in patent US7238813B2, “Chemical compounds” (Smithkline Beecham Corporation, priority 2000, dated 2007).

Legend:
GST-VEGFR2 = target: T1, GST-VEGFR2 (Homo sapiens, UniProt P35968); test: VEGF-R2 enzyme assay (VEGF-E), LANCE method; format: biochemical; conditions: 75 μM ATP
T1 construct: GST-VEGFR2, baculovirus expressed recombinant constructs of the intracellular domains of human TIE2 tagged by GST; made in house
Method: VEGF-R2 Enzyme Assay (VEGF-E)
The VEGF enzyme assay used the LANCE method (Wallac) and GST-VEGFR2, baculovirus expressed recombinant constructs of the intracellular domains of human […] tagged by GST. […] The reaction was stopped by the addition of EDTA (final concentration 50 mM). Streptavidin linked-APC (allophycocyanin, Molecular Probe) and Europium-labeled anti-phosphorylated tyrosine antibody (Wallac) were then added at the final concentration of 15 nM and 1 nM, respectively. The APC signal was measured using an ARVO multilabel counter (Wallac Berthold, Japan). The percent inhibition of activity was calculated relative to blank control wells. The concentration of test compound that inhibits 50% of activity (IC50) was interpolated using nonlinear regression (Levernberg-Marquardt) and the equation, y=Vmax (1−x/(K+x))+Y2, where “K” was equal to the IC50. The IC50 values were converted to pIC50 values, i.e., −log IC50 in Molar concentration.

[1] = target: T2, GST-TIE2 (intracellular domains of human TIE2) (Homo sapiens, UniProt Q02763); test: TIE-2 enzyme assay (TIE2-E), LANCE method; format: biochemical; conditions: 80 uM ATP
T2 construct: made in house
T2 sequence (Q02763 762-1104): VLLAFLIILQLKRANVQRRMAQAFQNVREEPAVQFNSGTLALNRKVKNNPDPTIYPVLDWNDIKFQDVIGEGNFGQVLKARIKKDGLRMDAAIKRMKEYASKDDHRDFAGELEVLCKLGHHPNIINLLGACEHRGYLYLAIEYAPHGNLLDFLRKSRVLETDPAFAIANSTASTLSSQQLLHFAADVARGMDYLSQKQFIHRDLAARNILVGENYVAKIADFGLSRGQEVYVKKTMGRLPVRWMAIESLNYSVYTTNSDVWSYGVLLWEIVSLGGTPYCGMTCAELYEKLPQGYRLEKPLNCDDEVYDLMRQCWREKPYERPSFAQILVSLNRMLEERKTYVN
Method: TIE-2Enzyme Assay (TIE2-E)
The TIE-2 enzyme assay used the LANCE method (Wallac) and GST-TIE2, baculovirus expressed recombinant constructs of the intracellular domains of human TIE2 (amino acids 762–1104, GenBank Accession # L06139) tagged by GST). […] This peptide phosphorylation was detected using the following procedure: for enzyme preactivation, GST-TIE2 was incubated for 30 mins at room temperature with 2 mM ATP, 5 mM MgCl2 and 12.5 mM DTT in 22.5 mM HEPES buffer (pH7.4). Preactivated GST-TIE2 was incubated for 30 mins at room temperature in 96 well plates with 1 μM D1-15 peptide, 80 uM ATP, 10 mM MgCl2, 0.1 mg/ml BSA and the test compound (diluted from a 10 mM stock in DMSO, final DMSO concentration was 2.4%) in 1 mM HEPES (pH7.4). The reaction was stopped by the addition of EDTA (final concentration 45 mM). Streptavidin linked-APC (allophycocyanin, Molecular Probe) and Europium-labeled anti-phosphorylated tyrosine antibody (Wallac) were then added at the final concentration of 17 μg/well and 2.1 μg/well, respectively. The APC signal was measured using an ARVO multilabel counter. (Wallac Berthold Japan). The percent inhibition of activity was calculated relative to blank control wells. The concentration of test compound that inhibits 50% of activity (IC50) was interpolated using nonlinear regression (Levernberg-Marquardt) and the equation, y=Vmax (1−x/(K+x))+Y2, where “K” was equal to the IC50. The IC50 values were converted to pIC50 values, i.e., −log IC50 in Molar concentration.

T1 sequence (P35968 786-1356 limits assumed): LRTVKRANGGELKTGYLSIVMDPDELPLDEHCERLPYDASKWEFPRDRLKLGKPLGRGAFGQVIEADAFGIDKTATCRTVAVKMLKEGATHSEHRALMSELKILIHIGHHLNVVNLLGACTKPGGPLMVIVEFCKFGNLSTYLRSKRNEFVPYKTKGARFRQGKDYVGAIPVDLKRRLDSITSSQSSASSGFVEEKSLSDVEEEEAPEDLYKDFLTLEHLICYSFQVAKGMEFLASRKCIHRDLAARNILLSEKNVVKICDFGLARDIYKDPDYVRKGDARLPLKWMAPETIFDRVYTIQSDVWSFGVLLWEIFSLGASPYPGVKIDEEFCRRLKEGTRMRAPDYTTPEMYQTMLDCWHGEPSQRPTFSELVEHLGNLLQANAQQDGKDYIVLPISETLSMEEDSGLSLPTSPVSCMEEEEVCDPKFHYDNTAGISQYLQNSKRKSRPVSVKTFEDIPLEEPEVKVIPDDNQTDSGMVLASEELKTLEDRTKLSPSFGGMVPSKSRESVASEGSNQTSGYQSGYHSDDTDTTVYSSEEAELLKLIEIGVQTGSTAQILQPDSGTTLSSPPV

Row | IC50 (GST-VEGFR2) [nM] | IC50 [1] [nM] | TIE2-E [1] | SMILES
1 | < 100 |  |  | COC(=O)Nc1nc2cc(Oc3cccc(NC(=O)Nc4cc(C(C)(C)C)on4)c3)ccc2[nH]1 [Example 129, Methyl N-(5-(3-((5-tert-butylisoxazole-3-yl)aminocarbonylamino)phenoxy)-1H-benzimidazol-2-yl)carbamate]
2 | < 100 |  |  | CCCCNC(=O)Nc1nc2ccc(Oc3ccc(NC(=O)Nc4cc(C(F)(F)F)ccc4F)cc3)cc2s1 [Example 137, 1-(6-(4-((2-Fluoro-5-(trifluoromethyl)phenyl)aminocarbonylamino)phenoxy)benzthiazol-2-yl)-3-(butyl)urea]
3 | < 100 |  |  | COC(=O)Nc1nc2cc(Oc3cccc(NC(=O)Nc4cccc(SC(F)(F)F)c4)c3)ccc2[nH]1 [Example 58]
4 | 100 to 1000 |  |  | COC(=O)Nc1nc2cc(Oc3cccc(NC(=O)Nc4cc(Cl)ccc4Cl)c3)ccc2[nH]1 [Example 121, Methyl N-(5-(3-((2,5-dichlorophenyl)aminocarbonylamino)phenoxy)-1H-benzimidazol-2-yl)carbamate]
5 | < 100 |  |  | COC(=O)Nc1nc2cc(Oc3cccc(NC(=O)Nc4ccc(Cl)cc4)c3)ccc2[nH]1 [Example 61, Methyl N-(5-(3-((4-chlorophenyl)aminocarbonylamino)phenoxy)-1H-benzimidazol-2-yl)carbamate]
6 | < 100 |  |  | O=C(Nc1ccc(Oc2ccc3[nH]c(NC(=O)Nc4cc(C(F)(F)F)ccc4F)nc3c2)cc1)Nc1cc(C(F)(F)F)ccc1F [Example 133, 1-(5-(4-((2-Fluoro-5-(trifluoromethyl)phenyl)aminocarbonylamino)phenoxy)-1H-benzimidazol-2-yl)-3-(2-fluoro-5-(trifluoromethyl)phenyl)urea]
7 | 100 to 1000 |  |  | COC(=O)Nc1nc2cc(Oc3ccc(NC(=O)Nc4cccc(Oc5ccccc5)c4)cc3)ccc2[nH]1 [Example 123, Methyl N-(5-(4-((3-phenoxyphenyl)aminocarbonylamino)phenoxy)-1H-benzimidazol-2-yl)carbamate]
8 |  | < 100 |  | Nc1nc2ccc(Oc3ccc(NC(=O)Nc4cc(C(F)(F)F)ccc4F)nc3)cc2n1Cc1ccccc1 [Example 113, 6-(6-((2-Fluoro-5-(trifluoromethyl)phenyl)aminocarbonylamino)-3-pyridyloxy)-1-benzyl-1H-benzimidazol-2-ylamine]
9 | < 100 |  |  | COC(=O)Nc1nc2cc(Oc3cccc(NC(=O)Nc4ccc(Oc5ccccc5)cc4)c3)ccc2[nH]1 [Example 125, Methyl N-(5-(3-((4-phenoxyphenyl)aminocarbonylamino)phenoxy)-1H-benzimidazol-2-yl)carbamate]
10 | < 100 |  |  | COC(=O)Nc1nc2cc(Oc3cccc(NC(=O)Nc4ccccc4OC(F)(F)F)c3)ccc2[nH]1 [Example 116, Methyl N-(5-(3-((2-(trifluoromethoxy)phenyl)aminocarbonylamino)phenoxy)-1H-benzimidazol-2-yl)carbamate]
11 | < 100 |  |  | COC(=O)Nc1nc2cc(Oc3cccc(NC(=O)Nc4cccc(Br)c4)c3)ccc2[nH]1 [Example 59, Methyl N-(5-(3-((3-bromophenyl)aminocarbonylamino)phenoxy)-1H-benzimidazol-2-yl)carbamate]
12 | < 100 |  |  | COC(=O)Nc1nc2ccc(C(=O)c3ccc(NC(=O)Nc4cc(C(F)(F)F)ccc4F)cc3)cc2[nH]1 [Example 78, Methyl N-(5-(4-((2-fluoro-5-(trifluoromethyl)phenyl)aminocarbonylamino)phenylcarbonyl)-1H-benzimidazol-2-yl)carbamate]
13 | < 100 |  |  | COC(=O)Nc1nc2cc(Oc3cccc(NC(=O)Nc4cccc(I)c4)c3)ccc2[nH]1 [Example 120, Methyl N-(5-(3-((3-iodophenyl)aminocarbonylamino)phenoxy)-1H-benzimidazol-2-yl)carbamate]
14 | 1000 to 10000 |  |  | COCCOCC(=O)Nc1nc2cc(Oc3ccc(NC(=O)Nc4nnc(N5CCOCC5)[nH]4)cc3)ccc2[nH]1 [Example 163, N-(5-(4-((5-Morpholino-1,3,4-triazol-2-yl)aminocarbonylamino)phenoxy)-1H-benzimidazol-2-yl)(2-(methoxy)ethoxy)acetamide]
15 | < 100 |  |  | COC(=O)Nc1nc2cc(Oc3cccc(NC(=O)Nc4ccccc4Oc4ccccc4)c3)ccc2[nH]1 [Example 124, Methyl N-(5-(3-((2-phenoxyphenyl)aminocarbonylamino)phenoxy)-1H-benzimidazol-2-yl)carbamate]
16 | < 100 |  |  | COC(=O)Nc1nc2cc(Oc3ccc(NC(=O)Nc4ccc5c(c4)CCC5)cc3)ccc2[nH]1 [Example 127, Methyl N-(5-(4-((5-indanyl)aminocarbonylamino)phenoxy)-1H-benzimidazol-2-yl)carbamate]
17 | < 100 |  |  | COC(=O)Nc1nc2cc(Sc3ccc(NC(=O)Nc4cc(C(C)(C)C)on4)cc3)ccc2[nH]1 [Example 130, Methyl N-(5-(4-((5-tert-butylisoxazole-3-yl)aminocarbonylamino)phenylthio)-1H-benzimidazol-2-yl)carbamate]
18 | < 100 |  | − | COC(=O)Nc1nc2cc(Oc3ccc(NC(=O)Nc4ccc(F)cc4)cc3)ccc2[nH]1 [Example 63, Methyl N-(5-(4-((4-fluorophenyl)aminocarbonylamino)phenoxy)-1H-benzimidazol-2-yl)carbamate]
19 | 100 to 1000 |  |  | COC(=O)Nc1nc2cc(Oc3cccc(NC(=O)Nc4ccccc4C(F)(F)F)c3)ccc2[nH]1 [Example 118, Methyl N-(5-(3-((2-(trifluoromethyl)phenyl)aminocarbonylamino)phenoxy)-1H-benzimidazol-2-yl)carbamate]
20 | < 100 |  |  | COC(=O)Nc1nc2cc(Oc3ccc(NC(=O)Nc4cc(C(C)(C)C)on4)cc3)ccc2[nH]1 [Example 128, Methyl N-(5-(4-((5-tert-butylisoxazole-3-yl)aminocarbonylamino)phenoxy)-1H-benzimidazol-2-yl)carbamate]
21 | < 100 | 1000 to 10000 |  | COC(=O)Nc1nc2cc(Oc3ccc(NC(=O)Nc4ccc(OC)cc4)cc3)ccc2[nH]1 [Example 62, Methyl N-(5-(4-((4-methoxyphenyl)aminocarbonylamino)phenoxy)-1H-benzimidazol-2-yl)carbamate]
22 | < 100 |  |  | COC(=O)Nc1nc2cc(Oc3cccc(NC(=O)Nc4ccc(SC(F)(F)F)cc4)c3)ccc2[nH]1 [Example 117, Methyl N-(5-(3-((4-(trifluoromethylthio)phenyl)aminocarbonylamino)phenoxy)-1H-benzimidazol-2-yl)carbamate]
23 | < 100 |  |  | COC(=O)Nc1nc2cc(Oc3cccc(NC(=O)Nc4ccc(Cl)c(C(F)(F)F)c4)c3)ccc2[nH]1 [Example 119, Methyl N-(5-(3-((4chloro-3-(trifluoromethyl)phenyl)aminocarbonylamino)phenoxy)-1H-benzimidazol-2-yl)carbamate]
24 | < 100 |  |  | CCCCNC(=O)Nc1nc2ccc(Oc3ccc(NC(=O)Nc4ccc(Cl)c(C(F)(F)F)c4)cc3)cc2s1 [Example 136, 1-(6-(4-((4-Chloro-3-(trifluoromethyl)phenyl)aminocarbonylamino)phenoxy)benzthiazol-2-yl)-3-(butyl)urea]
25 | < 100 |  |  | O=C(Nc1ccc(Cl)cc1)Nc1nc2cc(Oc3ccc(NC(=O)Nc4cc(C(F)(F)F)ccc4F)cc3)ccc2[nH]1 [Example 134, 1-(5-(4-((2-Fluoro-5-(trifluoromethyl)phenyl)aminocarbonylamino)phenoxy)-1H-benzimidazol-2-yl)-3-(4-chlorophenyl)urea]
26 | < 100 |  |  | COC(=O)Nc1nc2cc(Oc3cccc(NC(=O)Nc4cccc(Oc5ccccc5)c4)c3)ccc2[nH]1 [Example 60, Methyl N-(5-(3-((3-(phenoxy)phenyl)aminocarbonylamino)phenoxy)-1H-benzimidazol-2-yl)carbamate]
